Reference: US8791131B2, “Imidazo[1,5]naphthyridine compounds, their pharmaceutical use and compositions” (Pfizer Inc., priority 2008, dated 2014)

Tests used:
PI3-Kα = PI3-Kα (Mus musculus (Mouse), UniProt P42337); assay: PI3-Kα biochemical assay (in vitro kinase assay, fluorescence polarization); conditions: Ki calculated from IC50, [ATP]=30 uM, Km=25 uM;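 note: Insect-cell-expressed mouse p110/p85 complex converting PI(4,5)P2, product PI(3,4,5)P3 detected by displacing TAMRA-tagged PI(3,4,5)P3 from Grip1 PH domain, lower polarization means more product, room temperature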
mTOR = mTOR (Homo sapiens (Human), UniProt P42345)
[1] = tested on: PI3-K (phosphorylation of AKT at serine 473) in BT20 cells; assay: PI3-Kα cellular assay (phospho-AKT Ser473 ELISA in BT20 cells); conditions: Homo sapiens, BT-20, 1 h, read-out: S473 pAKT 10% FBS IC50 (μM);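 note: lysates read by ELISA with TMB colour at 450 nm, cells given 0.5% DMSO vehicle serve as positive control and cell-free wells as negative control, duplicate wells per concentration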

Chain of PI3-Kα (P42337 whole entry, the tested form may be a part): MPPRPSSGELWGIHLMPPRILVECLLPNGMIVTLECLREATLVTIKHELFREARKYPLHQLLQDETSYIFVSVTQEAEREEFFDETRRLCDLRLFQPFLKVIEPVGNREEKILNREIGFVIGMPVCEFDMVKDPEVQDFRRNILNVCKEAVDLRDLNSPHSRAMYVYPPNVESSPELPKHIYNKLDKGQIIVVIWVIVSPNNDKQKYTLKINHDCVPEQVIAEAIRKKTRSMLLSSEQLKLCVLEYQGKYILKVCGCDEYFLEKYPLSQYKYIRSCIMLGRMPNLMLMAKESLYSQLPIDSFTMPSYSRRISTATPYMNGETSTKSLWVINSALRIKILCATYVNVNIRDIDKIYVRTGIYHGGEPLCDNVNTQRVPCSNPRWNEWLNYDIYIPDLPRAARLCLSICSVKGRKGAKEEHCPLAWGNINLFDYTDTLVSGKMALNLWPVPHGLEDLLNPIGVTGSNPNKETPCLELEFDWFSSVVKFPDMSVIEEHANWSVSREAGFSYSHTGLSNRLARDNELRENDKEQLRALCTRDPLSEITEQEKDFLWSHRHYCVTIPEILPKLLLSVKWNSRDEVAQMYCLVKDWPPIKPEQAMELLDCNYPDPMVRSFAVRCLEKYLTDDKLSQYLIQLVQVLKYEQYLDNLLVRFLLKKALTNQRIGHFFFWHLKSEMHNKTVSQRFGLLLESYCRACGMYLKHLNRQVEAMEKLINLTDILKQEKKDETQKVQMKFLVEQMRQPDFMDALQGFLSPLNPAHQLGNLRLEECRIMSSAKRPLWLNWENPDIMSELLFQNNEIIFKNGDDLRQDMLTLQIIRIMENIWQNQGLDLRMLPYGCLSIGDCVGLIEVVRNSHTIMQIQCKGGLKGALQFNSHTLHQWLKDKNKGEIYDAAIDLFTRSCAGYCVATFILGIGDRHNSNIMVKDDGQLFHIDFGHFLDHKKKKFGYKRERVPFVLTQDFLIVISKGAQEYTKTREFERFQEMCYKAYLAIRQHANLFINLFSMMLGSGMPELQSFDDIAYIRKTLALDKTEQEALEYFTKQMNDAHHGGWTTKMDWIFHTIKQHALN
Chain of PI3-Kα (P26450 whole entry partner, the tested form may be a part): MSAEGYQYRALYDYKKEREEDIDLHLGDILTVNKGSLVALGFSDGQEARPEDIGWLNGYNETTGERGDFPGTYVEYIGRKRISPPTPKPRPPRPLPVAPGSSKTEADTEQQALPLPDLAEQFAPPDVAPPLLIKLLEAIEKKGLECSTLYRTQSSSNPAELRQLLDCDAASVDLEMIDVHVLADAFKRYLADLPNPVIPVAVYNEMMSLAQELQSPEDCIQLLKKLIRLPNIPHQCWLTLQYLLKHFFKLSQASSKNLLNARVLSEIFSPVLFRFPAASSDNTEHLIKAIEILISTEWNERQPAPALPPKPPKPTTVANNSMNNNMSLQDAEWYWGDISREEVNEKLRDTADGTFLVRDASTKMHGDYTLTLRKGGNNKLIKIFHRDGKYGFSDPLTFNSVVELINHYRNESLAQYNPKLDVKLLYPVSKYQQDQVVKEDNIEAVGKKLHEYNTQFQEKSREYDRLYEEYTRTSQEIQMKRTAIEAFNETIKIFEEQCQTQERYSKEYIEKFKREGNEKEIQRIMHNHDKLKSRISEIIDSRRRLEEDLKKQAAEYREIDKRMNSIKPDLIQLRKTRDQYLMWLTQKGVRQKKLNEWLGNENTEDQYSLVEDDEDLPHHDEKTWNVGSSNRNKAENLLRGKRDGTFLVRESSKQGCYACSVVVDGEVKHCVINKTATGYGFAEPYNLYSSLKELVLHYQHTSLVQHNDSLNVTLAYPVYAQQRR
Chain of mTOR (P42345 2156-2469): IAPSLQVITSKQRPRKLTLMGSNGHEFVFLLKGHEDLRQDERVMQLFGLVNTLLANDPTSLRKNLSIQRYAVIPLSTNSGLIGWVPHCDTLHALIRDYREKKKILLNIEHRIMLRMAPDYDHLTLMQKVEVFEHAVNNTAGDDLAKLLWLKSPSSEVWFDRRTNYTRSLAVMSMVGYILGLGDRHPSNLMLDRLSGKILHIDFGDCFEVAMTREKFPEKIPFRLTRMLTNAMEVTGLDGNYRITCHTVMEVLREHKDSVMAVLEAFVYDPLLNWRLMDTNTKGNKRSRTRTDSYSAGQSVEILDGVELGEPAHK

SMILES | PI3Ka Ki (PI3-Kα) | Ki (mTOR) | IC50 [1]
CC(=O)N1CCC(n2c(=O)n(C)c3cnc4ccc(-c5cnn(C)c5)nc4c32)CC1 [Compound 213, 1-(1-acetylpiperidin-4-yl)-3-methyl-8-(1-methyl-1H-pyrazol-4-yl)-1,3-dihydro-2H-imidazo[4,5-c][1,5]naphthyridin-2-one] | 4.09 nM | 7.81 nM | 0.133 µM
C[C@@H](O)C(=O)N1CCC(n2c(=O)n(C)c3cnc4ccc(-c5ccc(N(C)C)nc5)nc4c32)CC1 [Compound 214, 8-[6-(dimethylamino)pyridin-3-yl]-1-{1-[(2R)-2-hydroxypropanoyl]piperidin-4-yl}-3-methyl-1,3-dihydro-2H-imidazo[4,5-c][1,5]naphthyridin-2-one] | 0.397 nM | 1.74 nM | 0.00553 µM
Cn1cc(-c2ccc3ncc4c(c3n2)n(C2CCN(C(=O)C(C)(C)O)CC2)c(=O)n4C)cn1 [Compound 215, 1-[1-(2-hydroxy-2-methylpropanoyl)piperidin-4-yl]-3-methyl-8-(1-methyl-1H-pyrazol-4-yl)-1,3-dihydro-2H-imidazo[4,5-c][1,5]naphthyridin-2-one] | 4.67 nM | 22 nM | 0.0304 µM
CN(C)c1ccc(-c2ccc3ncc4c(c3n2)n(C2CCN(C(=O)CO)CC2)c(=O)n4C)cn1 [Compound 216, 8-[6-(dimethylamino)pyridin-3-yl]-1-(1-glycoloylpiperidin-4-yl)-3-methyl-1,3-dihydro-2H-imidazo[4,5-c][1,5]naphthyridin-2-one] | 0.505 nM | 2.29 nM | 0.00623 µM
Cn1c(=O)n(C2CCNCC2)c2c3nc(-c4cnn(CCO)c4)ccc3ncc21 [Compound 226, 8-[1-(2-hydroxyethyl)-1H-pyrazol-4-yl]-3-methyl-1-piperidin-4-yl-1,3-dihydro-2H-imidazo[4,5-c][1,5]naphthyridin-2-one] | 52.1 nM | 105 nM | 3.21 µM
Cn1c(=O)n(C2CCNCC2)c2c3nc(-c4cnc(N)nc4)ccc3ncc21 [Compound 227, 8-(2-aminopyrimidin-5-yl)-3-methyl-1-piperidin-4-yl-1,3-dihydro-2H-imidazo[4,5-c][1,5]naphthyridin-2-one] | 1.61 nM | 3.61 nM | 0.137 µM
Cn1c(=O)n([C@H]2CC[C@H](O)CC2)c2c3nc(-c4cnc(N)nc4)ccc3ncc21 [Compound 229, 8-(2-aminopyrimidin-5-yl)-1-(trans-4-hydroxycyclohexyl)-3-methyl-1,3-dihydro-2H-imidazo[4,5-c][1,5]naphthyridin-2-one] | 0.273 nM | 0.33 nM | 0.00336 µM
Cc1ccc(-c2ccc3ncc4c(c3n2)n([C@H](C)CO)c(=O)n4C)cn1 [Compound 231, 1-[(1R)-2-hydroxy-1-methylethyl]-3-methyl-8-(6-methylpyridin-3-yl)-1,3-dihydro-2H-imidazo[4,5-c][1,5]naphthyridin-2-one] | 13.4 nM | 56.2 nM | 0.269 µM
COc1ccc(-c2ccc3ncc4c(c3n2)n([C@H](C)CO)c(=O)n4C)cn1 [Compound 233, 1-[(1R)-2-hydroxy-1-methylethyl]-8-(6-methoxypyridin-3-yl)-3-methyl-1,3-dihydro-2H-imidazo[4,5-c][1,5]naphthyridin-2-one] | 8.94 nM | 23.8 nM | 0.237 µM
C[C@H](CO)n1c(=O)n(C)c2cnc3ccc(-c4cnc(N)nc4)nc3c21 [Compound 235, 8-(2-aminopyrimidin-5-yl)-1-[(1R)-2-hydroxy-1-methylethyl]-3-methyl-1,3-dihydro-2H-imidazo[4,5-c][1,5]naphthyridin-2-one] | 15.5 nM | 6.99 nM | 0.331 µM
C[C@H](CO)n1c(=O)n(C)c2cnc3ccc(-c4cccc5[nH]ccc45)nc3c21 [Compound 237, 1-[(1R)-2-hydroxy-1-methylethyl]-8-(1H-indo1-4-yl)-3-methyl-1,3-dihydro-2H-imidazo[4,5-c][1,5]naphthyridin-2-one] | 29.6 nM | 6.66 nM | 0.0553 µM
C[C@H](CO)n1c(=O)n(C)c2cnc3ccc(-c4cnc5[nH]ncc5c4)nc3c21 [Compound 238, 1-[(1R)-2-hydroxy-1-methylethyl]-3-methyl-8-(1H-pyrazolo[3,4-b]pyridin-5-yl)-1,3-dihydro-2H-imidazo[4,5-c][1,5]naphthyridin-2-one] | 0.438 nM | 4.44 nM | 0.0838 µM
C[C@@H](CO)n1c(=O)n(C)c2cnc3ccc(-c4cnn(C)c4)nc3c21 [Compound 239, 1-[(1S)-2-hydroxy-1-methylethyl]-3-methyl-8-(1-methyl-1H-pyrazol-4-yl)-1,3-dihydro-2H-imidazo[4,5-c][1,5]naphthyridin-2-one] | 102 nM | 311 nM | 5.04 µM
COc1ccc(-c2ccc3ncc4c(c3n2)n([C@@H](C)CO)c(=O)n4C)cn1 [Compound 241, 1-[(1S)-2-hydroxy-1-methylethyl]-8-(6-methoxypyridin-3-yl)-3-methyl-1,3-dihydro-2H-imidazo[4,5-c][1,5]naphthyridin-2-one] | 4.08 nM | 28.7 nM | 0.266 µM
CC(=O)N1CCC(n2c(=O)n(C)c3cnc4ccc(-c5ccc(N)nc5)nc4c32)CC1 [Compound 242, 1-(1-acetylpiperidin-4-yl)-8-(6-aminopyridin-3-yl)-3-methyl-1,3-dihydro-2H-imidazo[4,5-c][1,5]naphthyridin-2-one] | 0.252 nM | 0.299 nM | 0.00917 µM
CC(=O)N1CCC(n2c(=O)n(C)c3cnc4ccc(-c5ccc(S(C)(=O)=O)cc5)nc4c32)CC1 [Compound 246, 1-(1-acetylpiperidin-4-yl)-3-methyl-8-[4-(methylsulfonyl)phenyl]-1,3-dihydro-2H-imidazo[4,5-c][1,5]naphthyridin-2-one] | 24.2 nM | 35.3 nM | 2.58 µM
CC(=O)N1CCC(n2c(=O)n(C)c3cnc4ccc(-c5ccnc6[nH]ncc56)nc4c32)CC1 [Compound 251, 1-(1-acetylpiperidin-4-yl)-3-methyl-8-(1H-pyrazolo[3,4-b]pyridin-4-yl)-1,3-dihydro-2H-imidazo[4,5-c][1,5]naphthyridin-2-one] | 0.811 nM | 4.63 nM | 0.14 µM
C[C@H](O)C(=O)N1CCC(n2c(=O)n(C)c3cnc4ccc(-c5ccnc6[nH]ncc56)nc4c32)CC1 [Compound 253, 1-{1-[(2S)-2-hydroxypropanoyl]piperidin-4-yl}-3-methyl-8-(1H-pyrazolo[3,4-b]pyridin-4-yl)-1,3-dihydro-2H-imidazo[4,5-c][1,5]naphthyridin-2-one] | 1.04 nM | 1.69 nM | 0.218 µM
Cn1c(=O)n(C2CCN(C(=O)CO)CC2)c2c3nc(-c4cccc5[nH]ncc45)ccc3ncc21 [Compound 256, 1-(1-glycoloylpiperidin-4-yl)-8-(1H-indazol-4-yl)-3-methyl-1,3-dihydro-2H-imidazo[4,5-c][1,5]naphthyridin-2-one] | 0.575 nM | 1.97 nM | 0.0604 µM
C[C@@H](O)C(=O)N1CCC(n2c(=O)n(C)c3cnc4ccc(-c5cnc6[nH]ncc6c5)nc4c32)CC1 [Compound 258, 1-{1-[(2R)-2-hydroxypropanoyl]piperidin-4-yl}-3-methyl-8-(1H-pyrazolo[3,4-b]pyridin-5-yl)-1,3-dihydro-2H-imidazo[4,5-c][1,5]naphthyridin-2-one] | 0.11 nM | 0.241 nM | 0.0294 µM
COCC(=O)N1CCC(n2c(=O)n(C)c3cnc4ccc(-c5cnc6[nH]ncc6c5)nc4c32)CC1 [Compound 260, 1-[1-(methoxyacetyl)piperidin-4-yl]-3-methyl-8-(1H-pyrazolo[3,4-b]pyridin-5-yl)-1,3-dihydro-2H-imidazo[4,5-c][1,5]naphthyridin-2-one] | 0.167 nM | 0.323 nM | 0.0153 µM
Cn1c(=O)n(C2CCN(C(=O)C(C)(C)O)CC2)c2c3nc(-c4cnc5[nH]ncc5c4)ccc3ncc21 [Compound 261, 1-[1-(2-hydroxy-2-methylpropanoyl)piperidin-4-yl]-3-methyl-8-(1H-pyrazolo[3,4-b]pyridin-5-yl)-1,3-dihydro-2H-imidazo[4,5-c][1,5]naphthyridin-2-one] | 0.114 nM | 0.658 nM | 0.00991 µM
Cn1c(=O)n(C2CCN(C(=O)CO)CC2)c2c3nc(-c4cnc5[nH]ncc5c4)ccc3ncc21 [Compound 262, 1-(1-glycoloylpiperidin-4-yl)-3-methyl-8-(1H-pyrazolo[3,4-b]pyridin-5-yl)-1,3-dihydro-2H-imidazo[4,5-c][1,5]naphthyridin-2-one] | 0.32 nM | 4.06 nM | 0.0594 µM
CN1CCC(n2c(=O)n(C)c3cnc4ccc(-c5cnc6[nH]ncc6c5)nc4c32)CC1 [Compound 263, 3-methyl-1-(1-methylpiperidin-4-yl)-8-(1H-pyrazolo[3,4-b]pyridin-5-yl)-1,3-dihydro-2H-imidazo[4,5-c][1,5]naphthyridin-2-one] | 0.282 nM | 5.67 nM | 0.0218 µM
CCNC(=O)Nc1ccc(-c2ccc3ncc4c(c3n2)n(C2CCN(C(=O)OC(C)(C)C)CC2)c(=O)n4C)cc1 [Compound 265, tert-butyl 4-(8-{4-[(ethylcarbamoyl)amino]phenyl}-3-methyl-2-oxo-2,3-dihydro-1H-imidazo[4,5-c][1,5]naphthyridin-1-yl)piperidine-1-carboxylate] | 5.02 nM | 14.4 nM | 0.0399 µM
